From ChEMBL document CHEMBL1136912, “Synthesis and in vivo influenza virus-inhibitory effect of ester prodrug of 4-guanidino-7-O-methyl-Neu5Ac2en” (Bioorg Med Chem Lett, 2009)

Experiment: Inhibition of Tamiflu-resistant Influenza A virus (A/Yokohama/67/2006 (H1N1)) sialidase

Compound	IC50
CO[C@@H]([C@@H]1OC(C(=O)O)=C[C@H](NC(=N)N)[C@H]1NC(C)=O)[C@H](O)CO [LANINAMIVIR]	5.62 nM
CC(=O)N[C@H]1[C@H]([C@H](O)[C@H](O)CO)OC(C(=O)O)=C[C@@H]1NC(=N)N [ZANAMIVIR]	3.05 nM
